Reference: patent publication US20240025884A1 (Dong-A ST Co., Ltd., priority 2022, published 2024)
pIC50: −log10 of the molar value.

Each compound was assayed against GCN2 (Homo sapiens (Human), UniProt Q9P2K8) (assay: GCN2 Biochemical Assay (TR-FRET, GFP-eIF2S1 substrate phosphorylation)). Settings: read-out: IC50 (GCN2 Inhibitory Activity).
In short: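 In-house GCN2 (1.6 nM 2× stock) phosphorylates GFP-eIF2S1 (50 nM 2× stock) with ATP (0.2 mM 2× stock) and tRNA, pH 7.5, 70 min at room temperature; 10-point 3.16-fold compound series. TR-FRET detection with Tb-anti-phospho antibody, 2–3 h, Ex 340/Em 490/520 nm; artifact plate spiked with phospho-substrate.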

GCN2, sequence (Q9P2K8 whole entry): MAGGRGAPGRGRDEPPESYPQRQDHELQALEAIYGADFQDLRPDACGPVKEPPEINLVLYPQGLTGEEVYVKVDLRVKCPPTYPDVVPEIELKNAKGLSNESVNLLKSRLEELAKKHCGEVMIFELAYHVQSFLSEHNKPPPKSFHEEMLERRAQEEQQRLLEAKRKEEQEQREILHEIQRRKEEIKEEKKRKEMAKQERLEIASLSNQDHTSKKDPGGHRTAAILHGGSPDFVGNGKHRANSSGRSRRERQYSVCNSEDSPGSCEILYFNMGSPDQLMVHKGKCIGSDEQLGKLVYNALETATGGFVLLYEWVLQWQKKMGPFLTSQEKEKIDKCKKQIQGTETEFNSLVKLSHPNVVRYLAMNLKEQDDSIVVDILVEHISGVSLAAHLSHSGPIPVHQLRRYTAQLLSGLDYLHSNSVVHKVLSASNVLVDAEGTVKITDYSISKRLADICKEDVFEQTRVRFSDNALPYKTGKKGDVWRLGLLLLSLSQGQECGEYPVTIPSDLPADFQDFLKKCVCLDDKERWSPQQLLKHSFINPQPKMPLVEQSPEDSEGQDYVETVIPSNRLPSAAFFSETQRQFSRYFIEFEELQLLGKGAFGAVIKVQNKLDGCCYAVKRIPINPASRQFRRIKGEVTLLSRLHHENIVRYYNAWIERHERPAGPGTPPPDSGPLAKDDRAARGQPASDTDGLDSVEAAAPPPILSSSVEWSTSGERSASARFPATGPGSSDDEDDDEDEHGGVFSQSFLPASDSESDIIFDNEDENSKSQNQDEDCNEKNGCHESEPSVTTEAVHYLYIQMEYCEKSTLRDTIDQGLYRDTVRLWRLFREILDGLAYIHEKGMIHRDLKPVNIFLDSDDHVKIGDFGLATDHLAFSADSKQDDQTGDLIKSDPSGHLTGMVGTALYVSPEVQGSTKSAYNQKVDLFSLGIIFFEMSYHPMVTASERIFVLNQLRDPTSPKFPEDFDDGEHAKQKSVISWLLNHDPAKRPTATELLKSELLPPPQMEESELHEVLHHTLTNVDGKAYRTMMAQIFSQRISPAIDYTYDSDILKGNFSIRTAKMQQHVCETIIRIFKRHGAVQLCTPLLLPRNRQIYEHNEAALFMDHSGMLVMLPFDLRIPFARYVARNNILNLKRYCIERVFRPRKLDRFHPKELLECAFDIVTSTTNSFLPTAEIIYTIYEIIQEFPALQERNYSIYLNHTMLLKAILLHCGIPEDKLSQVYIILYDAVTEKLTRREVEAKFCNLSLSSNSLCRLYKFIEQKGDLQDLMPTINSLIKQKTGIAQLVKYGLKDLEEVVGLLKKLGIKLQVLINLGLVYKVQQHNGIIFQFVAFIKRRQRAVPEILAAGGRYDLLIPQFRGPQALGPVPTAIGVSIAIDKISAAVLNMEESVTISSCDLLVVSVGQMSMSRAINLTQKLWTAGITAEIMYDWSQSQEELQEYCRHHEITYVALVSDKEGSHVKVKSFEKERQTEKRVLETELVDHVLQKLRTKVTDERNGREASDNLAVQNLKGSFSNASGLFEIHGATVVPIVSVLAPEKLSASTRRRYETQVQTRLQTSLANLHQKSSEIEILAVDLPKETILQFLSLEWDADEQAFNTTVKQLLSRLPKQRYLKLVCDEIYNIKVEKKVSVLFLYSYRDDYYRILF

Structure (SMILES)	pIC50
Cc1cnc(Nc2cc(C)n(C)n2)nc1-c1c[nH]c2c(NC(=O)CN3CC[C@H](Oc4ccc(F)cc4Cl)C3)cccc12 [Example 85]	6.00 to 7.00
Cc1cnc(Nc2cc(C)n(C)n2)nc1-c1c[nH]c2c(NC(=O)CN3CC[C@H](Oc4cc(F)cc(F)c4)C3)cccc12 [Example 86]	6.00 to 7.00
Cc1cnc(Nc2cc(C)n(C)n2)nc1-c1c[nH]c2c(NC(=O)CN3CC[C@H](Oc4ccc(F)c(N)c4)C3)cccc12 [Example 87, (S)-2-(3-(3-amino-4-fluorophenoxy)pyrrolidin-1-yl)-N-(3-(2-((1,5-dimethyl-1H-pyrazol-3-yl)amino)-5-methylpyrimidin-4-yl)-1H-indol-7-yl)acetamide]	7.00 to 8.00
CCN(CC)c1cccc(O[C@H]2CCN(CC(=O)Nc3cccc4c(-c5nc(Nc6cc(C)n(C)n6)ncc5C)c[nH]c34)C2)c1 [Example 88]	6.00 to 7.00
Cc1cnc(Nc2cc(C)n(C)n2)nc1-c1c[nH]c2c(NC(=O)CN3CC[C@H](Oc4cccc(N)c4)C3)cccc12 [Example 89]	6.00 to 7.00
Cc1cnc(Nc2cc(C)n(C)n2)nc1-c1c[nH]c2c(NC(=O)CN3CC[C@H](Oc4ccnc(N)c4)C3)cccc12 [Example 90]	> 8.00
Cc1cnc(Nc2cc(C)n(C)n2)nc1-c1c[nH]c2c(NC(=O)CN3CC[C@H](Oc4ccnc(Cl)c4)C3)cccc12 [Example 91]	7.00 to 8.00
Cc1cnc(Nc2cc(C)n(C)n2)nc1-c1c[nH]c2c(NC(=O)CN3CC[C@H](Oc4cncc(N)n4)C3)cccc12 [Example 92]	> 8.00
Cc1cnc(Nc2cc(C)n(C)n2)nc1-c1c[nH]c2c(NC(=O)CN3CC[C@H](Oc4ncc(F)cn4)C3)cccc12 [Example 93]	7.00 to 8.00
Cc1cnc(Nc2cc(C)n(C)n2)nc1-c1c[nH]c2c(NC(=O)CN3CC[C@H](Oc4ncnc(Cl)c4C)C3)cccc12 [Example 94, (S)-2-(3-((6-chloro-5-methylpyrimidin-4-yl)oxy)pyrrolidin-1-yl)-N-(3-(2-((1,5-dimethyl-1H-pyrazol-3-yl)amino)-5-methylpyrimidin-4-yl)-1H-indol-7-yl)acetamide]	7.00 to 8.00
Cc1cc(O[C@H]2CCN(CC(=O)Nc3cccc4c(-c5nc(Nc6cc(C)n(C)n6)ncc5C)c[nH]c34)C2)nc(N)n1 [Example 95, (S)-2-(3-((2-amino-6-methylpyrimidin-4-yl)oxy)pyrrolidin-1-yl)-N-(3-(2-((1,5-dimethyl-1H-pyrazol-3-yl)amino)-5-methylpyrimidin-4-yl)-1H-indol-7-yl)acetamide]	> 8.00
Cc1cnc(Nc2cc(C)n(C)n2)nc1-c1c[nH]c2c(NC(=O)CN3CC[C@H](Oc4nc(Cl)ncc4N)C3)cccc12 [Example 96, (S)-2-(3-((5-amino-2-chloropyrimidin-4-yl)oxy)pyrrolidin-1-yl)-N-(3-(2-((1,5-dimethyl-1H-pyrazol-3-yl)amino)-5-methylpyrimidin-4-yl)-1H-indol-7-yl)acetamide]	7.00 to 8.00
Cc1ncc(Br)c(O[C@H]2CCN(CC(=O)Nc3cccc4c(-c5nc(Nc6cc(C)n(C)n6)ncc5C)c[nH]c34)C2)n1 [Example 97, (S)-2-(3-((5-bromo-2-methylpyrimidin-4-yl)oxy)pyrrolidin-1-yl)-N-(3-(2-((1,5-dimethyl-1H-pyrazol-3-yl)amino)-5-methylpyrimidin-4-yl)-1H-indol-7-yl)acetamide]	7.00 to 8.00
Cc1cnc(Nc2cc(C)n(C)n2)nc1-c1c[nH]c2c(NC(=O)CN3CC[C@H](Oc4cc(-c5cc(Cl)ccc5F)nc(N)n4)C3)cccc12 [Example 98, (S)-2-(3-((2-amino-6-(5-chloro-2-fluorophenyl)pyrimidin-4-yl)oxy)pyrrolidin-1-yl)-N-(3-(2-((1,5-dimethyl-1H-pyrazol-3-yl)amino)-5-methylpyrimidin-4-yl)-1H-indol-7-yl)acetamide]	6.00 to 7.00
Cc1cnc(Nc2cc(C)n(C)n2)nc1-c1c[nH]c2c(NC(=O)CN3CC[C@H](Oc4cc(C(F)(F)F)nc(N)n4)C3)cccc12 [Example 99, (S)-2-(3-((2-amino-6-(trifluoromethyl)pyrimidin-4-yl)oxy)pyrrolidin-1-yl)-N-(3-(2-((1,5-dimethyl-1H-pyrazol-3-yl)amino)-5-methylpyrimidin-4-yl)-1H-indol-7-yl)acetamide]	7.00 to 8.00
Cc1cnc(Nc2cc(C)n(C)n2)nc1-c1c[nH]c2c(NC(=O)CN3CC[C@H](Oc4ccc(-c5ccccc5)cc4)C3)cccc12 [Example 100, (S)-2-(3-([1,1′-biphenyl]-4-yloxy)pyrrolidin-1-yl)-N-(3-(2-((1,5-dimethyl-1H-pyrazol-3-yl)amino)-5-methylpyrimidin-4-yl)-1H-indol-7-yl)acetamide]	6.00 to 7.00
Cc1cnc(Nc2cc(C)n(C)n2)nc1-c1c[nH]c2c(NC(=O)CN3CC[C@H](Oc4ccc(C(C)(C)c5ccccc5)cc4)C3)cccc12 [Example 101, (S)-N-(3-(2-((1,5-dimethyl-1H-pyrazol-3-yl)amino)-5-methylpyrimidin-4-yl)-1H-indol-7-yl)-2-(3-(4-(2-phenylpropan-2-yl)phenoxy)pyrrolidin-1-yl)acetamide]	< 6.00
CCCCCc1cnc(O[C@H]2CCN(CC(=O)Nc3cccc4c(-c5nc(Nc6cc(C)n(C)n6)ncc5C)c[nH]c34)C2)nc1 [Example 102, (S)-N-(3-(2-((1,5-dimethyl-1H-pyrazol-3-yl)amino)-5-methylpyrimidin-4-yl)-1H-indol-7-yl)-2-(3-((5-pentylpyrimidin-2-yl)oxy)pyrrolidin-1-yl)acetamide]	7.00 to 8.00
Cc1cnc(Nc2cc(C)n(C)n2)nc1-c1c[nH]c2c(NC(=O)CN3CC[C@H](Oc4ccc(CN5CCN(C)CC5)cc4)C3)cccc12 [Example 103, (S)-N-(3-(2-((1,5-dimethyl-1H-pyrazol-3-yl)amino)-5-methylpyrimidin-4-yl)-1H-indol-7-yl)-2-(3-(4-((4-methylpiperazin-1-yl)methyl)phenoxy)pyrrolidin-1-yl)acetamide]	7.00 to 8.00
Cc1cnc(Nc2cc(C)n(C)n2)nc1-c1c[nH]c2c(NC(=O)CN3CC[C@H](Oc4ccnn4C)C3)cccc12 [Example 104, (S)-N-(3-(2-((1,5-dimethyl-1H-pyrazol-3-yl)amino)-5-methylpyrimidin-4-yl)-1H-indol-7-yl)-2-(3-((1-methyl-1H-pyrazol-5-yl)oxy)pyrrolidin-1-yl)acetamide]	> 8.00
Cc1cnc(Nc2cc(C)n(C)n2)nc1-c1c[nH]c2c(NC(=O)CN3CC[C@H](Oc4ccn(C)n4)C3)cccc12 [Example 105, (S)-N-(3-(2-((1,5-dimethyl-1H-pyrazol-3-yl)amino)-5-methylpyrimidin-4-yl)-1H-indol-7-yl)-2-(3-((1-methyl-1H-pyrazol-3-yl)oxy)pyrrolidin-1-yl)acetamide]	> 8.00
COC(=O)c1sc2ccccc2c1O[C@H]1CCN(CC(=O)Nc2cccc3c(-c4nc(Nc5cc(C)n(C)n5)ncc4C)c[nH]c23)C1 [Example 106, methyl (S)-3-((1-(2-((3-(2-((1,5-dimethyl-1H-pyrazol-3-yl)amino)-5-methylpyrimidin-4-yl)-1H-indol-7-yl)amino)-2-oxoethyl)pyrrolidin-3-yl)oxy)benzo[b]thiophene-2-carboxylate]	6.00 to 7.00
COC(=O)c1sccc1O[C@H]1CCN(CC(=O)Nc2cccc3c(-c4nc(Nc5cc(C)n(C)n5)ncc4C)c[nH]c23)C1 [Example 107, methyl (S)-3-((1-(2-((3-(2-((1,5-dimethyl-1H-pyrazol-3-yl)amino)-5-methylpyrimidin-4-yl)-1H-indol-7-yl)amino)-2-oxoethyl)pyrrolidin-3-yl)oxy)thiophene-2-carboxylate]	> 8.00
Cc1cnc(Nc2cc(C)n(C)n2)nc1-c1c[nH]c2c(NC(=O)CN3CC[C@H](Oc4ccsc4C(=O)O)C3)cccc12 [Example 108, (S)-3-((1-(2-((3-(2-((1,5-dimethyl-1H-pyrazol-3-yl)amino)-5-methylpyrimidin-4-yl)-1H-indol-7-yl)amino)-2-oxoethyl)pyrrolidin-3-yl)oxy)thiophene-2-carboxylic acid]	> 8.00
Cc1cnc(Nc2cc(C)n(C)n2)nc1-c1c[nH]c2c(NC(=O)CN3CC[C@H](Oc4ccsc4C(N)=O)C3)cccc12 [Example 109, (S)-3-((1-(2-((3-(2-((1,5-dimethyl-1H-pyrazol-3-yl)amino)-5-methylpyrimidin-4-yl)-1H-indol-7-yl)amino)-2-oxoethyl)pyrrolidin-3-yl)oxy)thiophene-2-carboxamide]	> 8.00
CNC(=O)c1sccc1O[C@H]1CCN(CC(=O)Nc2cccc3c(-c4nc(Nc5cc(C)n(C)n5)ncc4C)c[nH]c23)C1 [Example 110, (S)-3-((1-(2-((3-(2-((1,5-dimethyl-1H-pyrazol-3-yl)amino)-5-methylpyrimidin-4-yl)-1H-indol-7-yl)amino)-2-oxoethyl)pyrrolidin-3-yl)oxy)-N-methylthiophene-2-carboxamide]	> 8.00
Cc1cnc(Nc2cc(C)n(C)n2)nc1-c1c[nH]c2c(NC(=O)CN3CC[C@H](Oc4ccsc4C(=O)NC4CC4)C3)cccc12 [Example 111, (S)-N-cyclopropyl-3-((1-(2-((3-(2-((1,5-dimethyl-1H-pyrazol-3-yl)amino)-5-methylpyrimidin-4-yl)-1H-indol-7-yl)amino)-2-oxoethyl)pyrrolidin-3-yl)oxy)thiophene-2-carboxamide]	> 8.00
Cc1cc(O[C@H]2CCN(CC(=O)Nc3cccc4c(-c5nc(Nc6cc(C)n(C)n6)ncc5C)c[nH]c34)C2)no1 [Example 112, (S)-N-(3-(2-((1,5-dimethyl-1H-pyrazol-3-yl)amino)-5-methylpyrimidin-4-yl)-1H-indol-7-yl)-2-(3-((5-methylisoxazol-3-yl)oxy)pyrrolidin-1-yl)acetamide]	7.00 to 8.00
Cc1cnc(Nc2cc(C)n(C)n2)nc1-c1c[nH]c2c(NC(=O)CN3CC[C@H](Oc4noc5ccccc45)C3)cccc12 [Example 113, (S)-2-(3-(benzo[d]isoxazol-3-yloxy)pyrrolidin-1-yl)-N-(3-(2-((1,5-dimethyl-1H-pyrazol-3-yl)amino)-5-methylpyrimidin-4-yl)-1H-indol-7-yl)acetamide]	7.00 to 8.00
